Laboratory results reported in patent EP2949339A1, “Agonist of CD1c-restricted T cells and uses thereof” (Ospedale San Raffaele S.r.l., priority 2014, dated 2015).

Key:
[1] = tested on: CD1c self-reactive T cells; assay: T cell activation assay with lipid-pulsed CD1c+ APCs (GM-CSF and/or IFN-γ release, ELISA); format: cell-based, human; settings: same T cells; data not shown
Experimental: T cell activation assays were performed by co-culturing the indicated numbers of target cells (5x10^4/well unless otherwise indicated) with T cells (5x10^4/well) in 200µl volume in duplicate or triplicate cultures. In some experiments, mouse anti-CD1c (L161, Abcam) or mouse IgG1 isotype control mAbs were added and incubated for 30 min prior to the addition of T cells. Supernatants were collected after 24-48 hours and cytokines released by T cells (GM-CSF and/or IFN-γ) were measured by ELISA. In assays using fractionated lipids, THP1-CD1c cells (5x10^4/well) were fixed with 0.05% glutaraldehyde for 20 s and used as APCs. Fold change in cytokine release was calculated using the following formula: GM-CSF release with lipid pulsed APC / GM-CSF release with un-pulsed APC. In some experiments, normal B cells purified from PBMCs (5x10^4/well) were used as APCs without prior fixation. APCs were pulsed with lipids for 4 hours at the indicated dilutions before addition of T cells.

[2] = tested on: CD1c self-reactive T cells; assay: sCD1c-plate-bound T cell activation assay; format: cell-based, human; settings: CD1c self-reactive clones DN4.99, K34A27f; GM-CSF release; Fig. 1E, 3 C
Experimental: sCD1c-plate-bound assays were performed using MaxiSorp plates (Nunc) coated with anti-BirA mAb (Nowbakht et al., 2005) to capture sCD1c and were then incubated with lipids for 6 hours. The wells were extensively washed before addition of T cells.
Recombinant soluble human CD1c tagged with BirA peptide (sCD1c), was obtained and purified using techniques similar to those previously described (Garcia-Alles et al., 2006). The following primers were used to PCR amplify the extracellular domain of human CD1c: forward XhoI 5'- […] (SEQ ID No. 3) and reverse ClaI 5'-[…] (SEQ ID No. 4). sCD1c was purified from J558-transfected cell culture supernatants by affinity chromatography using anti-CD1c mAb (10C3, BD Pharmingen).

## lysophosphatidylcholine [LPC]
[1]
  doses at which T cells were very weakly stimulated: above 50 µg/ml

## lysophosphatidic acid [LPA]
[1]
  doses at which T cells were very weakly stimulated: above 50 µg/ml

## sulfatide
[2]
  stimulation of T cells by lipid presented by plastic-bound sCD1c: failed to stimulate

## lysophosphatidylethanolamine [LPE]
[1]
  doses at which T cells were very weakly stimulated: above 50 µg/ml
